Source: the supplement of paper PMC10307832

What was measured:
Experiment in all cases: relative viability (nuclei count vs DMSO), 5 days (fraction); higher = more cells survive
CUDC-101 + Foretinib = compound: C#Cc1cccc(Nc2ncnc3cc(OC)c(OCCCCCCC(=O)NO)cc23)c1 [CUDC-101] + COc1cc2c(Oc3ccc(NC(=O)C4(C(=O)Nc5ccc(F)cc5)CC4)cc3F)ccnc2cc1OCCCN1CCOCC1 [Foretinib] (partner 0.25 µM)
In short: (§1)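 For relative viability, nuclei counts in treated wells were divided by those in vehicle wells. Lung cancer cell lines had been pin-tool dosed in 1536-well plates the day after seeding and cultured for 5 days, then fixed and stained in one step (final 0.05% Triton X-100, 1% formaldehyde, 1 ug/ml Hoechst) and imaged at 4×. Doses were one drug alone or a fixed anchor-drug dose plus five library-drug doses (not always all listed) in √10 steps, and values are duplicate-plate medians.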

CUDC-101 + Alpelisib = compound: C#Cc1cccc(Nc2ncnc3cc(OC)c(OCCCCCCC(=O)NO)cc23)c1 [CUDC-101] + Cc1nc(NC(=O)N2CCC[C@H]2C(N)=O)sc1-c1ccnc(C(C)(C)C(F)(F)F)c1 [Alpelisib] (partner 2 µM)
In short: as §1

CUDC-101 + Decitabine = compound: C#Cc1cccc(Nc2ncnc3cc(OC)c(OCCCCCCC(=O)NO)cc23)c1 [CUDC-101] + Nc1ncn([C@H]2C[C@H](O)[C@@H](CO)O2)c(=O)n1 [Decitabine] (partner 2 µM)
In short: as §1

NVP-TAE684 + Phenformin = compound: COc1cc(N2CCC(N3CCN(C)CC3)CC2)ccc1Nc1ncc(Cl)c(Nc2ccccc2S(=O)(=O)C(C)C)n1 [NVP-TAE684] + N=C(N)NC(=N)NCCc1ccccc1 [Phenformin] (partner 250 µM)
In short: as §1

Row | Cell Line | relative viability (CUDC-101 + Foretinib; first compound 0.01 µM) | relative viability (CUDC-101 + Foretinib; first compound 0.03162 µM) | relative viability (CUDC-101 + Foretinib; first compound 0.1 µM) | relative viability (CUDC-101 + Foretinib; first compound 0.3162 µM) | relative viability (CUDC-101 + Foretinib; first compound 1 µM) | relative viability (CUDC-101 + Alpelisib; first compound 0.01 µM) | relative viability (CUDC-101 + Alpelisib; first compound 0.03162 µM) | relative viability (CUDC-101 + Alpelisib; first compound 0.1 µM) | relative viability (CUDC-101 + Alpelisib; first compound 0.3162 µM) | relative viability (CUDC-101 + Alpelisib; first compound 1 µM) | relative viability (CUDC-101 + Decitabine; first compound 0.01 µM) | relative viability (CUDC-101 + Decitabine; first compound 0.03162 µM) | relative viability (CUDC-101 + Decitabine; first compound 0.1 µM) | relative viability (CUDC-101 + Decitabine; first compound 0.3162 µM) | relative viability (CUDC-101 + Decitabine; first compound 1 µM) | relative viability (NVP-TAE684 + Phenformin; first compound 0.2 µM) | relative viability (NVP-TAE684 + Phenformin; first compound 0.6325 µM) | relative viability (NVP-TAE684 + Phenformin; first compound 2 µM)
1 | NCI-H661 | 1.06 | 0.861 | 1.05 | 0.98 | 0.536 | 0.792 | 0.609 | 0.794 | 0.575 | 0.595 | 0.544 | 0.497 | 0.487 | 0.571 | 0.307 | 0.275 | 0.272 | 0.242
2 | EKVX | 0.976 | 0.639 | 0.681 | 1.18 | 0.859 | 0.833 | 0.817 | 0.849 | 1.03 | 0.682 | 0.322 | 0.446 | 0.33 | 0.323 | 0.299 | 0.24 | 0.23 | 0.208
3 | HCC-827 | 1 | 0.436 | 0.203 | 0.153 | 0.167 | 0.958 | 0.27 | 0.224 | 0.187 | 0.179 | 0.309 | 0.248 | 0.177 | 0.149 | 0.155 | 0.377 | 0.41 | 0.372
4 | NCI-H2170 | 0.978 | 0.973 | 1.05 | 0.995 | 0.903 | 0.88 | 0.744 | 0.724 | 0.658 | 0.47 | 0.416 | 0.514 | 0.485 | 0.444 | 0.391 | 0.404 | 0.364 | 0.358
5 | NCI-H1395 | 1.05 | 0.846 | 1.01 | 1.09 | 0.844 | 0.993 | 0.998 | 1.1 | 1.18 | 0.823 | 0.794 | 0.756 | 0.773 | 0.709 | 0.66 | 0.462 | 0.411 | 0.404
6 | NCI-H2009 | 1.2 | 1.18 | 1.36 | 1.28 | 1.14 | 1.13 | 1.1 | 1.14 | 1.07 | 1.04 | 0.416 | 0.372 | 0.415 | 0.438 | 0.351 | 0.47 | 0.458 | 0.328
7 | NCI-H1437 | 1.38 | 1.08 | 1.27 | 1.38 | 1.27 | 1.04 | 0.886 | 0.988 | 0.983 | 0.679 | 0.556 | 0.537 | 0.553 | 0.533 | 0.498 | 0.283 | 0.31 | 0.224
8 | NCI-H2087 | 1.33 | 1.03 | 1.08 | 1.04 | 0.664 | 1.02 | 1.02 | 0.979 | 1.05 | 0.783 | 0.245 | 0.313 | 0.256 | 0.251 | 0.237 | 0.501 | 0.436 | 0.33
9 | LCLC-103H | 0.753 | 0.854 | 0.808 | 0.751 | 0.513 | 0.93 | 0.95 | 1.01 | 1.02 | 0.953 | 0.692 | 0.695 | 0.722 | 0.657 | 0.633 | 0.297 | 0.356 | 0.276
